ChEMBL document CHEMBL4627332, “Interruption of Vif/Elongin C interaction: In silico and experimental elucidation of the underlying molecular mechanism of benzimidazole-based APOBEC3G stabilizers” (Bioorg Med Chem, 2020)
Activity calls are given as the source filed them. No cut-off for these calls is given here.

Experiment: Inhibition of HIV1 Vif interaction with ElonginC (unknown origin) co-transfected in 293 T cells assessed as decrease in ElonginC precipitation at 20 uM measured after 1 hr in presence of ant-FLAG antibody by immunoblot analysis
Type: cell-based

Cc1noc(C)c1CSc1nc2ccccc2n1-c1ccccc1
inhibition: Active
